This note sets out measurements from patent US9573899B2, “USP7 inhibitor compounds and methods of use” (Genentech, Inc., priority 2015, dated 2017).

The target in experiment [1] is T1, USP7, full-length, native C-Terminus (Homo sapiens, UniProt Q93009).
T1 construct: USP7, full-length, native C-Terminus, 0.2 nM
In words: Biochemical USP7 assay with Ubiquitin-Rho110 substrate, compounds pre-incubated with USP7 (USP7_Ub-Rho preInc). As to conditions: compounds pre-mixed with USP7, 1 hour incubation, before substrate; read-out: USP7 Ub-Rho preInc (IC50). Summed up:
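Full-length USP7 (0.2 nM) cleaving Ubiquitin-Rho110 (1 uM) in pH 7.5 Tris buffer with DTT, 1 h at room temperature, acetic-acid quenched; Rho110 fluorescence at 485/535 nm. Pre-incubation variant: compound and USP7 mixed 1 h before substrate addition. IC50 from % inhibition versus no-enzyme and uninhibited controls.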

Experiment [2] deals with ubiquityl-MDM2 in SJSA-1 osteosarcoma cells. As to the kind of experiment: Cellular ubiquityl-MDM2 assay (MSD Ub/Total MDM2). The experiment is classed as cell-based. As to conditions: Homo sapiens; SJSA-1 cells, low serum conditions; read-out: increase in ubiquityl-MDM2 (EC50). The protocol: HCT116 colon cancer cells or SJSA-1 osteosarcoma cells were seeded at a density of 150,000 cell per well in 90 ml (RPMI 1640 media, 10% FBS, 1× GlutaMAX™, Gibco) in 96-well black clear bottom, TC-treated (Greiner, Cat#655090), and incubated for 2 hours at 37° C., 5% CO2 in a tissue culture incubator. Compounds were prepared in a serial dilution in DMSO at 200× the final desired concentration in a 96-well polypropylene V-bottom (Greiner, Cat#651261), then diluted 1:20 in RPMI tissue culture medium and 10 ml transferred to each well of the cell plate. Cell plates were incubated overnight for 20 hours, 37° C., 5% CO2. 20 ml of a […] stock (in RPMI) of the proteasome inhibitor, MG132 (Cayman Chemical, Cat#10012628), was added to each well. Cells were incubated for 1 hour at 37° C., 5% CO2. Quantitation of ubiquityl-MDM2 was carried out using Ub/Total MDM2 whole cell lysate kit (MSD, Cat#K15168D-2). […] MSD read buffer was prepared according to manufacturer's instructions and 150 ml added per well. Plates were read using a MSD Sector Reader. […] Percentage increase in ubiquityl-MDM2 was calculated relative to DMSO controls using Genedata Screener software.

T1 sequence (Q93009 whole entry): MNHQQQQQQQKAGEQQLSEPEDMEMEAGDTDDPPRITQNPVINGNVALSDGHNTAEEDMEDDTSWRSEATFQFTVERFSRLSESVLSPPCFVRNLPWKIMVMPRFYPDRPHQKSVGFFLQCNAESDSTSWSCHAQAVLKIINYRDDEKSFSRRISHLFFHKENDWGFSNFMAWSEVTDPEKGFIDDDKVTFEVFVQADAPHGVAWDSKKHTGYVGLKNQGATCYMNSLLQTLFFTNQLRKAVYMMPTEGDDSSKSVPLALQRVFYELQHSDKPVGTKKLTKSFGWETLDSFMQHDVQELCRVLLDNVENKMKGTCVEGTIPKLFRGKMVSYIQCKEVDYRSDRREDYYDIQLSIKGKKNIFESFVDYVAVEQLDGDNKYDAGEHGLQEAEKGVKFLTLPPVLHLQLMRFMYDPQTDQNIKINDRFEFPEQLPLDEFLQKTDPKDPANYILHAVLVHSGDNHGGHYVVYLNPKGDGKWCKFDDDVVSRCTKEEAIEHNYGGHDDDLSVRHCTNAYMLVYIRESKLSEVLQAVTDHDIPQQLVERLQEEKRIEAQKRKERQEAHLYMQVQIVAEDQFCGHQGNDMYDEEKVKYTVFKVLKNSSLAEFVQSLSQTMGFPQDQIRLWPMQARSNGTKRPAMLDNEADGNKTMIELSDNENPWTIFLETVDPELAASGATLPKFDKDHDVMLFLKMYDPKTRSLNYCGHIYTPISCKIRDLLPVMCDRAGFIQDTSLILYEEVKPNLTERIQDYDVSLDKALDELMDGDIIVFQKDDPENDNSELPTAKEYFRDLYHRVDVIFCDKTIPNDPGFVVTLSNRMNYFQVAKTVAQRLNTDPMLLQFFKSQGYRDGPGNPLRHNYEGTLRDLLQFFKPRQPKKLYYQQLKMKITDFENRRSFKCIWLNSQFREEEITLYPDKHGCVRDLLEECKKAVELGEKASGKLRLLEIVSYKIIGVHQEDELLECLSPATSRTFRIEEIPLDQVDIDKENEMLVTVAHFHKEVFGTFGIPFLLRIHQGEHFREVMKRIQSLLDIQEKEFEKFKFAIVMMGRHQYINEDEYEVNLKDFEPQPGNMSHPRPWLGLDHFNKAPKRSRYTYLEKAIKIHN

As for `CCc1c(-c2ccc3[nH]ncc3c2)cnc(N)c1-c1ccc(O)cc1` [Compound 88, 4-[2-amino-4-ethyl-5-(1H-indazol-5-yl)-3-pyridyl]phenol], the half-inhibitory concentration (IC50) in experiment [1] came to 2100 nM. The EC50 in experiment [2] turned out to be 2000 nM.

The IC50 is the point on the concentration scale where inhibition reaches its midpoint. The term EC50 denotes the concentration needed to bring the measured effect to its halfway point.
